Where “and” joins values, the source holds several entries; their conditions need not be identical. Identical values can stand only once.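 Test compounds were applied to cells in 96-well plates for 48 hours at 5 doses. Here, GI50 denotes the concentration required for 50% inhibition of growth. TGI denotes the concentration required for complete inhibition of growth.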
Legend:
Test in all cases: growth of human tumour cells (NCI), 48 h
BT-549 breast = tested on: BT-549 breast
UACC-62 melanoma = tested on: UACC-62 melanoma
UACC-257 melanoma = tested on: UACC-257 melanoma
RXF 393 renal = tested on: RXF 393 renal
MDA-MB-231 breast = tested on: MDA-MB-231 breast
SK-MEL-5 melanoma = tested on: SK-MEL-5 melanoma
SR leukemia = tested on: SR leukemia
COLO 205 colon = tested on: COLO 205 colon
HT29 colon = tested on: HT29 colon
NCI-H23 lung = tested on: NCI-H23 lung

Structure (SMILES)	GI50 (BT-549 breast)	TGI (BT-549 breast)	GI50 (UACC-62 melanoma)	TGI (UACC-62 melanoma)	GI50 (UACC-257 melanoma)	TGI (UACC-257 melanoma)	GI50 (RXF 393 renal)	TGI (RXF 393 renal)	GI50 (MDA-MB-231 breast)	TGI (MDA-MB-231 breast)	GI50 (SK-MEL-5 melanoma)	TGI (SK-MEL-5 melanoma)	GI50 (SR leukemia)	TGI (SR leukemia)	GI50 (COLO 205 colon)	TGI (COLO 205 colon)	GI50 (HT29 colon)	TGI (HT29 colon)	GI50 (NCI-H23 lung)	TGI (NCI-H23 lung)
CCC(c1ccccc1)c1noc(CCN(CC)CC)n1 (stereo unspecified)	39.6 µM	> 100 µM	43.2 µM	> 100 µM	> 51.2 µM	> 100 µM	14.8 µM	29 µM	26.4 µM	> 91.2 µM	31.1 µM	> 100 µM	37.5 µM	> 100 µM	17.5 µM	34.5 µM	27.2 µM	81.3 µM	63.3 µM	> 100 µM
COc1ccc(-c2[nH]c3ccc(OC)cc3c2C=C(C#N)C#N)cc1	> 100 µM	> 100 µM	0.355 µM	> 100 µM	> 100 µM	> 100 µM	5.48 µM	> 100 µM	1.18 µM	> 100 µM	0.321 µM	> 100 µM	0.0188 µM	0.116 µM	0.288 µM	1.02 µM	0.404 µM	> 100 µM	1.25 µM	> 100 µM
CC(=O)O[C@H]1CC2C(C3CC[C@H](C(C)CCC(=O)O)[C@]31C)[C@H](OC(C)=O)C[C@@H]1CC3(CC[C@]21C)OOC1(CCC(C)CC1)OO3 (stereo partly specified)	–	15.1 µM and 7.14 µM	–	–	–	24.8 µM and 24.3 µM	–	27.9 µM and 23.9 µM	9.81 µM and 2.79 µM	29.2 µM and 7.65 µM	7.2 µM and 3.39 µM	20.1 µM and 12.5 µM	–	3.82 µM and 3.94 µM	–	8.21 µM and 4.4 µM	–	12.5 µM and 10.4 µM	–	15.8 µM and 5.43 µM
NC(N)=NCCCC(NCc1c2ccccc2nc2ccccc12)C(=O)O (stereo unspecified)	–	> 100 µM	–	> 100 µM	–	> 88.6 µM	–	> 100 µM	–	> 100 µM	–	> 62.2 µM	–	> 83.2 µM	–	> 100 µM	–	> 66.4 µM	–	> 100 µM
S=C1SCN(Cc2ccccc2)CN1Cc1ccco1	2.91 µM	12.3 µM	4.75 µM	18.7 µM	6.28 µM	20.7 µM	2 µM	5.53 µM	3.17 µM	12.3 µM	11.7 µM	26.9 µM	1.87 µM	> 100 µM	4.4 µM	14.3 µM	3.17 µM	13.9 µM	5.21 µM	34.9 µM
CCCCCC(=O)O[C@]1(C(C)=O)CCC2C3CCC4=CC(=O)CC[C@]4(C)C3CC[C@@]21C (stereo partly specified)	2.49 µM	4.71 µM	1.63 µM	3.88 µM	3.15 µM	12.6 µM	1.81 µM	4.47 µM	2.49 µM	7.88 µM	1.43 µM	2.77 µM	2.14 µM	6.5 µM	2.13 µM	4.04 µM	2.59 µM	7.88 µM	2.46 µM	9.97 µM
COc1ccc(C(O)c2cc3c(N)c(C(=O)Nc4cccc5ccccc45)sc3nc2C)cc1 (stereo unspecified)	0.385 µM	–	0.627 µM	> 53.2 µM	–	> 32.5 µM	3.23 µM	> 100 µM	0.393 µM	–	0.327 µM	1.25 µM	0.141 µM	–	0.457 µM	> 33.1 µM	0.35 µM	–	0.562 µM	> 100 µM
